Measurements reported in patent publication US11541041B1, “Compounds that interact with the Ras superfamily for the treatment of cancers, inflammatory diseases, Rasopathies, and fibrotic disease” (Shy Therapeutics LLC, priority 2017, dated 2023).
Where two headings read alike, the source gives them in different places. One block for each compound: values may come before it.

How the values were obtained:
[1] = tested on: MIA-PACA2 pancreatic cancer cell lines; test: Cell proliferation assay (CellTiter 96 AQueous One); format: cell-based; conditions: Homo sapiens, MIA PaCa-2; for inhibition at 30 µM: MIA-PACA2
Experimental: (§1) Cell lines: Tumor-derived pancreatic cancer cell lines MIA-PACA2 were purchased from ATCC and grown in complete DMEM-High Glucose medium supplemented with penicillin (100 U/mL), streptomycin (100 μg/mL), and 10% heat-inactivated FBS at 37° C. in a humidified incubator with 5% CO2.
Method: Cells are plated at 1000 cells/well density in 96-wells plate, starved ON, and the next day tested small molecules are added to the cells in the final concentration of 30 μM with 0.3% DMSO 3 hours prior to 10% FBS addition. After serum addition cells are incubated for 6 days at 37° C. in a humidified incubator with 5% CO2. For IC50 value determination, serial dilutions of compounds were added to cells under the same conditions.
Assay: At the end of the incubation period, cell cultures are tested using the CellTiter 96® AQueous One Solution Cell Proliferation Assay kit (Promega Corporation, Madison, Wis.) according to the manufacturer specifications. Briefly, assay is performed by adding 20 μl of the CellTiter 96 Aqueous One Solution Reagent directly to culture wells, followed by for 1-4 hours incubation at 37° C. in a humidified incubator with 5% CO2. At the end of incubation time, absorbance at 492 nm is recorded with the 96-well plate reader Eppendorf AF2200, and degree of small molecule-dependent proliferation inhibition is calculated from raw data assuming No Serum cells value as 100%.

[2] = tested on: MIA-PACA2 pancreatic cancer cell lines; test: Cell proliferation assay, alternate assay conditions (DAPI staining); format: cell-based; conditions: Homo sapiens, MIA PaCa-2; for inhibition at 10 µM: * = tested at 10 μM, alternate conditions, MIA-PACA2
Experimental: as §1
Method: Cells are plated at 4000 cells/well density in 96-wells plate. The next day tested small molecules are added to the cells in the final concentration of 10 μM in the presence of 0.3% DMSO and 10% FBS. After small molecules addition, cells are incubated for 4 days at 37° C. in a humidified incubator with 5% CO2. For IC50 value determination, serial dilutions of compounds were added to cells under the same conditions.
Assay: At the end of the incubation period, cell cultures are fixed with a 50-50 mixture (v/v) acetone-methanol for 10 minutes at −20° C., followed by rehydration in PBS for 10 minutes at room temperature. After rehydration, cells are stained with DAPI (1 μg/ml) in PBS for 10 minutes at room temperature, followed by 3 washes with PBS. After staining, DAPI fluorescence is recorded (358 nm excitation/461 nm emission) with the 96-well plate reader Molecular Devices Spectramax M3; degree of small mole-cule-dependent proliferation inhibition is calculated from raw data assuming No Serum cells value as 100%.

KRas G12D mutant protein = KRas G12D mutant protein (Homo sapiens (Human), UniProt P01116, G12D); test: Ras GTP binding domain inhibition assay
Experimental: The following method was developed as specific assay for KRas G12D mutant protein.
(§2) Buffer-I: • 50 mM Tris, pH 7.5 • 150 mM NaCl (optional) • 1 mM MgCl2 • 1 mM DTT. • KRas G12D mutant protein was expressed as a His-tagged protein. Purified His-KRas G12D protein was diluted in buffer-I to a final concentration of 3-10 μg/ml. • 200 μl of the diluted His-KRas G12D protein was added to a nickel coated 96 well plate and incubated overnight at 4° C. • The next day, wells were washed 3× in 200 μl of Buffer-I. • Then 200 μl of Buffer-I were added to each well in the presence of 1% DMSO. • Tested compounds were added to the protein-coated wells at a concentration of 20 μM, and incubated for 3 hours at room temperature. While performing IC50 measurements a serial dilution of all tested concentrations was prepared.
(§3) Then 22 μl of Cy3-GTP or Cy5-GTP was added to each well. The labeled GTP was incubated for 45 min. at room temperature. • Following GTP incubation, wells were washed 3× in Buffer-I, and 200 μl of Buffer-I were added to each well. • Following washes, the amount of bound labeled-GTP was measured with an Eppendorf AF2200 plate reader.

KRas wild type = KRas wild type (Homo sapiens (Human), UniProt P01116); test: Ras GTP binding domain inhibition assay; conditions: 20 μM compound
Experimental: as §2, §3
(§4) By substituting KRas G12D mutant protein with KRas G12C mutant, KRas wild type, KRas Q61H mutant, KRas G12D/Q61H double mutant or KRas G12C/Q61H double mutant under the assay conditions described above, KRas G12C mutant KRas wild type, KRas Q61H mutant, KRas G12D/Q61H double mutant and KRas G12C/Q61H double mutant inhibition, respectively, were each determined.

KRas G12C mutant = KRas G12C mutant (Homo sapiens (Human), UniProt P01116, G12C); test: Ras GTP binding domain inhibition assay; conditions: 20 μM compound
Experimental: as §2, §3, §4

[3] = biological target: KRas G12D/Q61H double mutant (Homo sapiens (Human), UniProt P01116, G12D/Q61H); test: Ras GTP binding domain inhibition assay
Experimental: as §2, §3, §4

KRas Q61H mutant = KRas Q61H mutant (Homo sapiens (Human), UniProt P01116, Q61H); test: Ras GTP binding domain inhibition assay; conditions: 20 μM compound
Experimental: as §2, §3, §4

[4] = biological target: KRas G12C/Q61H double mutant (Homo sapiens (Human), UniProt P01116, G12C/Q61H); test: Ras GTP binding domain inhibition assay; conditions: 20 μM compound
Experimental: as §2, §3, §4

Rho-A = Rho-A (Homo sapiens (Human), UniProt P61586); test: Rac and Rho inhibition assay; format: binding; conditions: read-out: Rho-A % Inh.
Experimental: as §2, §3
(§5) By substituting KRas G12D mutant protein with either Rac-1 or Rho-A under the assay conditions described in Example 5, Rac-1 and Rho-A inhibition, respectively, were each determined.

Rac-1 = Rac-1 (Homo sapiens (Human), UniProt P63000); test: Rac and Rho inhibition assay; format: binding; conditions: read-out: Rac-1 % Inh.
Experimental: as §2, §3, §5

[5] = tested on: MAPK phosphorylation in PANC-1 pancreatic cancer cell line; test: MAPK cell-based phosphorylation assay (cell-direct ELISA, EGF-stimulated); conditions: Homo sapiens
Experimental: Cell lines: Tumor-derived pancreatic cancer cell lines PANC-1 were purchased from ATCC and were maintained according to ATCC recommendation.
Method: Cells were plated at 7500 cells/well density in 96-wells plate, starved over night, and the small molecules to be tested were added to the cells in the final concentration of 30 μM with 0.3% DMSO for 6 hours incubation at 37° C. For IC50 value determination, serial dilutions of compounds were added to cells under the same conditions. Next, cells were stimulated with 1.5 ng/ml EGF for 15 min. followed by cell fixation with 4% Formaldehyde in PBS at RT for 20 min. Phosphorylation level of MAPK was determined by Cell-direct ELISA.
Cell-direct ELISA: For each well, cells were permeabilized with PBS-Triton 0.1%, quenched with H2O2 0.6% in PBS-Triton 0.1%, and probed with anti-phospho-MAPK antibodies (R&D Systems) followed by HRP-conjugated secondary antibody (Jackson Immunoresearch, West Grove, Pa.). Next, a solution 50 μM of the fluorescent substrate AmpliFlu Red (Sigma) was added and incubated at RT for 20 min. At the end of the incubation time, fluorescence was measured at 595 nm on a microplate reader (AF2200; Eppendorf, Inc., Hamburg, Germany).

[6] = 20 μM compound, read-out: % Inhibition at 20 μM, KRas G12D
[7] = 20 μM compound, read-out: % Inhibition at 20 μM, KRas G12D Q61H
[8] = at 20 μM, read-out: KRas G12D % Inh.

Chain of KRas wild type (P01116-2 other isoform, or with tags, fused parts or gaps): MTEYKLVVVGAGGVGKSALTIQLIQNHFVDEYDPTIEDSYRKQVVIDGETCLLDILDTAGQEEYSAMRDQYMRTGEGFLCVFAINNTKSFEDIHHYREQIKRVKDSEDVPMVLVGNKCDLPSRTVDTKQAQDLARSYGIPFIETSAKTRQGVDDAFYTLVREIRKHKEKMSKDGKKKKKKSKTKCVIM
Chain of KRas G12D mutant protein (P01116-2 other isoform, or with tags, fused parts or gaps G12D): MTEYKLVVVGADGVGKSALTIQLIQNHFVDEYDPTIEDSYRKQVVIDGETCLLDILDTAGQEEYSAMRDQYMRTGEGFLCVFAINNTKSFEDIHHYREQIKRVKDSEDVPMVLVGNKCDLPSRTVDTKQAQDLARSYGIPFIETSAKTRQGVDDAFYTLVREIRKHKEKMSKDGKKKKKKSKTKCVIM
Chain of KRas G12D/Q61H double mutant (P01116-2 other isoform, or with tags, fused parts or gaps G12D/Q61H): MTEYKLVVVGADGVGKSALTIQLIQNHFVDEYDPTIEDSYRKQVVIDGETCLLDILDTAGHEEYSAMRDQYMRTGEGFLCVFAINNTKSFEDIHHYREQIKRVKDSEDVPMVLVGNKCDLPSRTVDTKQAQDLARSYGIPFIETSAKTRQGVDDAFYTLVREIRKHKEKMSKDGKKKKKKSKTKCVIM
Chain of KRas G12C mutant (P01116-2 other isoform, or with tags, fused parts or gaps G12C): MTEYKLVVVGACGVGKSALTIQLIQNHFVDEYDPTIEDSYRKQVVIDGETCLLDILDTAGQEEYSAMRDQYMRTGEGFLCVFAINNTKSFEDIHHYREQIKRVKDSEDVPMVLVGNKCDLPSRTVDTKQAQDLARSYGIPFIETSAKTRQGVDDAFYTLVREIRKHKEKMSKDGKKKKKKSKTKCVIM
Chain of KRas Q61H mutant (P01116-2 other isoform, or with tags, fused parts or gaps Q61H): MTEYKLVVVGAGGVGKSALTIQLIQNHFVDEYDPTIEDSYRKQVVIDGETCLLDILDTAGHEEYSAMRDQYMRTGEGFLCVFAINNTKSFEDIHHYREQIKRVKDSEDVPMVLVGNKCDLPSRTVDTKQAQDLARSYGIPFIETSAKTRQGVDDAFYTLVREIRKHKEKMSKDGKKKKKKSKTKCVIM
Chain of KRas G12C/Q61H double mutant (P01116-2 other isoform, or with tags, fused parts or gaps G12C/Q61H): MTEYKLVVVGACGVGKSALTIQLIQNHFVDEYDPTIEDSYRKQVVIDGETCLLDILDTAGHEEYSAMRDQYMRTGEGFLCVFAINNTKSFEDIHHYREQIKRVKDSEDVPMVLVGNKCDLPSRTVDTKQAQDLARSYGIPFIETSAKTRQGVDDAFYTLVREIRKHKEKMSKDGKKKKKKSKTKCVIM
Chain of Rho-A (P61586 whole entry): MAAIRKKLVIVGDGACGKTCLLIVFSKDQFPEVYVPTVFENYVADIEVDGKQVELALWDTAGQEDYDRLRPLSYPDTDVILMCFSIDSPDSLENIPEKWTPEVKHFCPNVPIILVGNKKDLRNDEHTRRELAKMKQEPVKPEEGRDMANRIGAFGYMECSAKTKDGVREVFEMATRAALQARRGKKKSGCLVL

Compound: COCCCCNC(=O)c1csc2nc(-c3ccccn3)nc(N3CCSCC3)c12
inhibition at 30 µM [1]: 1 to 25%

IC50 ([1]; MIA-PACA2 proliferation, compound tested under both conditions, IC50 assay conditions not specified): > 1000 nM
Compound: Nc1nc(-c2ccccn2)nc2c(-c3ccccn3)csc12
inhibition at 30 µM [1]: 76 to 100%
inhibition at 10 µM [2]: 76 to 100%

Compound: COCC(C)Nc1nc(-c2ccccn2)nc2sc(-c3ccncc3)c(-c3ccccc3)c12 (centres unmarked)
inhibition at 10 µM [2]: 51 to 75%

inhibition at 20 µM (KRas G12D mutant protein; [6]): 0%
inhibition at 20 µM (KRas wild type): 1 to 25%
inhibition at 20 µM (KRas G12C mutant): 1 to 25%
Compound: COCCOc1nc(-c2ccncn2)nc2sc(-c3ccccc3)c(-c3ccccc3)c12

inhibition at 20 µM (KRas G12D mutant protein; [6]): 51 to 75%
inhibition at 20 µM (KRas wild type): 25 to 50%
inhibition at 20 µM (KRas G12C mutant): 51 to 75%
inhibition at 20 µM [3, 7]: 51 to 75%
Compound: O=C(CCCc1cccnc1)N1CCCc2c(O)nc(C3C=CC=CN3)nc21 (centres unmarked)

inhibition at 20 µM (KRas Q61H mutant): 1 to 25%
inhibition at 20 µM [4]: 1 to 25%
inhibition at 20 µM [3, 7]: 1 to 25%
Compound: Cc1nc(-c2cn(C)cn2)nc2sc(-c3ccc(CNC(=O)OC(C)(C)C)cc3)c(-c3ccccc3)c12

Compound: COc1nc(-c2ccccn2)nc2c(-c3cccc(C#N)c3)csc12
inhibition at 10 µM [2]: 76 to 100%

IC50 ([2]; MIA-PACA2 proliferation, same assay as % inhibition (alternate conditions)): 501 to 1000 nM
Compound: COOCCNc1nc(-c2nccn2C)nc2sc(-c3ccccc3)c(-c3ccccc3)c12
inhibition at 10 µM [2]: 76 to 100%

inhibition at 20 µM (KRas Q61H mutant): 51 to 75%
inhibition at 20 µM [4]: 51 to 75%
inhibition at 20 µM [3, 7]: 25 to 50%
Compound: Nc1nc(-c2ccccn2)nc2c(CC3CNC3)csc12

inhibition at 20 µM (KRas G12D mutant protein; [6]): 1 to 25%
inhibition at 20 µM (KRas wild type): 1 to 25%
inhibition at 20 µM (KRas G12C mutant): 1 to 25%
Compound: Cc1cccc(-c2c(C)sc3c(O)nc(-c4nccn4C)nc23)c1

inhibition at 20 µM (Rho-A): 76 to 100%
inhibition at 20 µM (Rac-1): 51 to 75%
inhibition at 20 µM (KRas G12D mutant protein; [8]): 51 to 75%
inhibition at 20 µM ([3]; at 20 μM, read-out: KRas G12D Q61H % Inh.): 51 to 75%
Compound: Nc1nc(-c2ccccn2)nc2c(CC3CCNCC3)csc12

Compound: COc1nc(-c2ccccn2)nc2c(-c3cc(CN4CCCC4)ccc3F)csc12
inhibition at 10 µM [2]: 76 to 100%

Compound: Oc1nc(-c2ccccn2)nc2c(-c3ccccc3)csc12
inhibition at 10 µM ([5]; * = tested at 10 μM): 25 to 50%

% Inhibition at 20 μM, KRas Q61H (KRas Q61H mutant): D (D = 76-100% inhibition)
Compound: COC(=O)c1c(C)sc2c(O)nc(-c3ccccn3)nc12

Compound: O=C(CCc1c[nH]c2ccccc12)Nc1nnc(-c2cccnc2)[nH]1
inhibition at 30 µM ([5]; 30 μM): 25 to 50%

inhibition at 20 µM (Rho-A): 25 to 50%
inhibition at 20 µM (Rac-1): 25 to 50%
inhibition at 20 µM (KRas G12D mutant protein; [8]): 1 to 25%
Compound: CC(O)ONc1nc(-c2nccn2C)nc2sc(-c3ccccc3)c(-c3ccccc3)c12 (centres unmarked)

Compound: COCCNc1nc(-c2nccn2C)nc2sc(-c3ccccc3)c(-c3ccccc3)c12 [drawing 3594]
% Inhibition at 20 μM, KRas G12D (KRas G12D mutant protein; 20 μM compound): B (B = 25-50% inhibition)
% Inhibition at 20 μM, KRas wild type (KRas wild type): B (B = 25-50% inhibition)
% Inhibition at 20 μM, KRas G12C (KRas G12C mutant): A (A = 1-25% inhibition)
